In patent publication US20260226103A1, “MODIFIED AMINO ACIDS AND USES THEREOF” (priority 2022, published 2026):
Square brackets hold non-standard residues; d marks the D form. Peptide text beside a SMILES is read from it. * marks the point of attachment. X1 = O=C(O)c1cc(NC(=S)*)ccc1-c1c2ccc(=O)cc-2oc2cc(O)ccc12; aIle = CC[C@@H](C)[C@H](N)C(=O)O; dCit = NC(=O)NCCC[C@@H](N)C(=O)O; X2 = N=C(N)c1ccc(C(=O)*)cc1; Dap = NC[C@H](N)C(=O)O; Ahx = NCCCCCC(=O)O; βAla = NCCC(=O)O

Tests used:
HeLa cells [1] = assay: Cell uptake of FITC-peptides by flow cytometry; assay type: cell-based; details: for time of maximum uptake: 37° C., 1 hr vs 4 hr
Protocol: (§2) HeLa and U2OS cells were maintained in medium consisting of Dulbecco's modified Eagle's medium (DMEM), 10% FBS, 1% L-Glutamine and 1% penicillin/streptomycin at pH 7.4. […] Cells were cultured in a humidified incubator at 37° C. with 5% CO2 atmosphere.
HeLa or U2OS cells were cultured in 24 well plates (4.5×10^5 cells per well) for 24 h. On the day of the experiment, the cells were incubated with 5 μM FITC-peptide in DMEM with 10% FBS at 37° C. or 4° C. for required time. The media was then removed and wells were washed with PBS (2×500 μL per well) and then detached from the plate with TrypLE Xpress (500 μL per well). PBS containing 2% bovine serum albumin (500 μL) was added to each well and cells transferred to 5 mL polystyrene FACS tubes. Cells were centrifuged (5 min, 5000 rpm) and washed with PBS containing 2% bovine serum albumin (2×500 μL) before being suspended in PBS containing 2% bovine serum albumin (1.00 mL per FACS tube).
(§3) Cells were finally analysed on a Thermo fisher Attune NxT flow cytometer with laser excitation/emission set at 490 nm/519 nm and a flow rate of 200 μL min^−1. Flow cytometry data was analysed using FlowJo software with gating set at a range of 51K-285K side scatter and 251K-815K for forward scatter variance for every sample. Median fluorescence intensity values were calculated from the gating range using FlowJo.
(§4) Median fluorescence values reported were normalised by subtracting average background fluorescence at 490 nm/519 nm of a set of untreated cells (ran with every experiment) from the value of each FITC labelled peptide.

[2] = Cell viability AlamarBlue assay; assay type: cell-based; details: human, HeLa cells, 24 h
Protocol: (§1) HeLa, U2OS or HepG2 cells were cultured in 96 well plates (2.6×10^3 cells per well) for 24 h. […] The experiments were performed in triplicate for each concentration. AlamarBlue® was then added to each well (0.5 mM, 10 μL, 10% v/v) and incubated for a further 6 h for HeLa and HepG2 cells and 24 h for U2OS cells. Cells were then analysed using a HIdex plate reader with laser excitation/emission set at 560 nm/595 nm. Fluorescence of untreated cells were used as a 100% viable control, with 1% Triton X used as a negative control, and viability of cells were calculated as a percentage of the control fluorescence values using OriginPro 2019b software.

HeLa cells [3] = assay: Cellular distribution by confocal microscopy; assay type: cell-based; details: 5 μM fluorescein-tagged CPP, 4 h
Protocol: HeLa cells were cultured in 8 well plates (Ibidi plates) (3.5×10^4 cells per well) for 24 h. […] After 3.5 h incubation, Hoescht 33258 was added at a concentration of 5.6 μM and cells incubated at 37° C. for the final 0.5 h. Cells were removed from the incubator and media removed. Each well was then washed with serum and phenol red free media (2×200 μL) then incubated with 4% formaldehyde in PBS (200 μL) for 20 min at room temperature. After incubation the 4% formaldehyde solution was removed and PBS (200 μL) added to each well. The cells were then imaged using a Leica S8 confocal microscope. Excitation/emission was set at 352 nm/461 nm for Hoescht 33258 imaging and 495 nm/519 nm for FITC labelled peptides. Images were processed using ImageJ software. Images were ‘rolling ball’ averaged across the set for each channel to remove background fluorescence.

HeLa cells [4] = assay: Cell viability AlamarBlue assay; assay type: cell-based; details: for cytotoxicity / tolerability (in words): HeLa cells, at or up to 100 μM
Protocol: as §1

[5] = pH of 7.4; cited from earlier work
U2OS cells = details: U2OS cell line
Protocol: as §2
HeLa or U2OS cells were cultured in 24 well plates (4.5×10^5 cells per well) for 24 h. On the day of the experiment, the cells were incubated with 5 μM FITC-peptide in DMEM with 10% FBS at 37° C. or 4° C. for required time. The media was then removed and wells were washed with PBS (2×500 μL per well) and then detached from the plate with TrypLE Xpress (500 μL per well). PBS containing 2% bovine serum albumin (500 μL) was added to each well and cells transferred to 5 mL polystyrene FACS tubes. […]
as §3, §4

SMILES | cell uptake relative to TP-2 (in words) (HeLa cells [1]; 5 μM FITC-peptide) | cellular distribution profile (in words) (HeLa cells [3]) | cytotoxicity / tolerability (in words) (HeLa cells [4]) | further results
CC[C@@H](C)[C@H](NC(=O)[C@H](CC(C)C)NC(=O)[C@@H]1CCCN1C(=O)CCCCCNC(=S)Nc1ccc(-c2c3ccc(=O)cc-3oc3cc(O)ccc23)c(C(=O)O)c1)C(=O)N[C@@H](Cc1ccc(O)cc1)C(=O)N[C@@H](CC(C)C)C(=O)N[C@H](CCCCN)C(=O)N[C@@H](CC(C)C)C(=O)N[C@@H](CC(C)C)C(=O)N[C@H](CCCCN)C(=O)NCC(N)=O [TP-3, FITC-XPLIYLKLLKG] ({X1-Ahx}-PL[aIle]YL[dK]LL[dK]G-NH2) | no difference in cell uptake |  |  | 
CC[C@H](C)[C@H](NC(=O)[C@H](CC(C)C)NC(=O)[C@H](Cc1ccccc1)NC(=O)[C@H](CCC(N)=O)NC(=O)[C@H](Cc1ccc(O)cc1)NC(=O)[C@H](CCCNC(=N)N)NC(=O)[C@H](CCCNC(=N)N)NC(=O)CCNC(=O)[C@H](CCCNC(=N)N)NC(=O)[C@H](CCCNC(=N)N)NC(=O)CCCCCNC(=O)[C@H](CCCNC(=N)N)NC(=O)CCCCCNC(=S)Nc1ccc(-c2c3ccc(=O)cc-3oc3cc(O)ccc23)c(C(=O)O)c1)C(=O)N[C@@H](CCCNC(=N)N)C(=O)NCCC(=O)N[C@@H](CCCNC(=N)N)C(=O)NCCCCCC(=O)N[C@@H](CCCNC(=N)N)C(N)=O [PiP6, FITC-XRXRRBRRYQFLIRBRXR] ({X1-Ahx}-R[Ahx]RR[βAla]RRYQFLIR[βAla]R[Ahx]R-NH2) |  | high level of accumulation within the nucleus |  | viability at 24 h, 30 µM ([2]; 30 μM FITC-peptide): 15%; viability at 24 h, 100 µM ([2]; 100 μM FITC-peptide): 5%; time of maximum uptake (HeLa cells [1]; 5 μM FITC-peptide): 1 h
N=C(N)NCCC[C@H](NC(=O)[C@H](CCCNC(=N)N)NC(=O)[C@H](CCCNC(=N)N)NC(=O)[C@H](CCC(N)=O)NC(=O)[C@H](CCCNC(=N)N)NC(=O)[C@H](CCCNC(=N)N)NC(=O)[C@H](CCCCN)NC(=O)[C@H](CCCCN)NC(=O)[C@H](CCCNC(=N)N)NC(=O)CCCCCNC(=S)Nc1ccc(-c2c3ccc(=O)cc-3oc3cc(O)ccc23)c(C(=O)O)c1)C(N)=O [Tat, FITC-XRKKRRQRRR] |  | accumulating in puncta | moderate levels of toxicity | time of maximum uptake (HeLa cells [1]; 5 μM FITC-peptide): 1 h
CC[C@@H](C)[C@H](NC(=O)[C@H](CC(C)C)NC(=O)[C@@H]1CCCN1C(=O)CCCCCNC(=S)Nc1ccc(-c2c3ccc(=O)cc-3oc3cc(O)ccc23)c(C(=O)O)c1)C(=O)N[C@@H](CC(C)C)C(=O)N[C@@H](CC(C)C)C(=O)N[C@@H](CCCNC(=N)N)C(=O)N[C@@H](CC(C)C)C(=O)N[C@@H](CC(C)C)C(=O)N[C@@H](CCCNC(=N)N)C(=O)NCC(N)=O [TP-1, FITC-XPLILLRLLRG] ({X1-Ahx}-PL[aIle]LLRLLRG-NH2) |  | extensively distributed throughout the cytoplasm | well tolerated | 
CC[C@@H](C)[C@H](NC(=O)[C@H](CC(C)C)NC(=O)[C@@H]1CCCN1C(=O)CCCCCNC(=S)Nc1ccc(-c2c3ccc(=O)cc-3oc3cc(O)ccc23)c(C(=O)O)c1)C(=O)N[C@@H](Cc1ccc(O)cc1)C(=O)N[C@@H](CC(C)C)C(=O)N[C@H](CCCNC(N)=O)C(=O)N[C@@H](CC(C)C)C(=O)N[C@@H](CC(C)C)C(=O)N[C@H](CCCNC(N)=O)C(=O)NCC(N)=O [TP-4, FITC-XPLIYLCitLLCitG] ({X1-Ahx}-PL[aIle]YL[dCit]LL[dCit]G-NH2) | reduction in cellular uptake |  |  | 
N=C(N)NCCC[C@H](N)C(=O)O [arginine] |  |  |  | Log D or c Log D [5]: approximately −3.5
CC[C@@H](C)[C@H](NC(=O)[C@H](CC(C)C)NC(=O)[C@@H]1CCCN1C(=O)CCCCCNC(=S)Nc1ccc(-c2c3ccc(=O)cc-3oc3cc(O)ccc23)c(C(=O)O)c1)C(=O)N[C@@H](Cc1ccc(O)cc1)C(=O)N[C@@H](CC(C)C)C(=O)N[C@@H](CNC(=O)c1ccc(C(=N)N)cc1)C(=O)N[C@@H](CC(C)C)C(=O)N[C@@H](CC(C)C)C(=O)N[C@@H](CNC(=O)c1ccc(C(=N)N)cc1)C(=O)NCC(N)=O [Am-TP-2, FITC-XPLIYLAmLLAmG] ({X1-Ahx}-PL[aIle]YL[Dap](X2)LL[Dap](X2)G-NH2) |  | cytoplasmic distribution profile |  | decrease in cellular uptake at 4° C. relative to 37° C. (HeLa cells [1]): 30 fold; uptake at 4 hr incubation relative to 1 hr (in words) (HeLa cells [1]): enhanced uptake; increase in uptake relative to TP-2 (HeLa cells [1]; 5 μM FITC-peptide): 4 fold; uptake trend (in words) (U2OS cells): enhanced uptake
CC[C@@H](C)[C@H](NC(=O)[C@H](CC(C)C)NC(=O)[C@@H]1CCCN1C(=O)CCCCCNC(=S)Nc1ccc(-c2c3ccc(=O)cc-3oc3cc(O)ccc23)c(C(=O)O)c1)C(=O)N[C@@H](Cc1ccc(O)cc1)C(=O)N[C@@H](CC(C)C)C(=O)N[C@H](CCCNC(=N)N)C(=O)N[C@@H](CC(C)C)C(=O)N[C@@H](CC(C)C)C(=O)N[C@H](CCCNC(=N)N)C(=O)NCC(N)=O [TP-5, FITC-XPLIYLrLLrG] ({X1-Ahx}-PL[aIle]YL[dR]LL[dR]G-NH2) | further reduction in uptake |  |  | cell uptake relative to TP peptides containing L-Arg (TP-1 and TP-2) (in words) (HeLa cells [1]; 5 μM FITC-peptide): enhanced uptake
CC[C@@H](C)[C@H](NC(=O)[C@H](CC(C)C)NC(=O)[C@@H]1CCCN1C(=O)CCCCCNC(=S)Nc1ccc(-c2c3ccc(=O)cc-3oc3cc(O)ccc23)c(C(=O)O)c1)C(=O)N[C@@H](Cc1ccc(O)cc1)C(=O)N[C@@H](CC(C)C)C(=O)N[C@@H](CCCNC(=N)N)C(=O)N[C@@H](CC(C)C)C(=O)N[C@@H](CC(C)C)C(=O)N[C@@H](CCCNC(=N)N)C(=O)NCC(N)=O [TP-2, FITC-XPLIYLRLLRG] ({X1-Ahx}-PL[aIle]YLRLLRG-NH2) |  | extensively distributed throughout the cytoplasm | well tolerated | 
CC(C)C[C@H](NC(=O)[C@H](CC(C)C)NC(=O)[C@H](CCCNC(=N)N)NC(=O)[C@H](CCCNC(=N)N)NC(=O)[C@H](CC(C)C)NC(=O)[C@H](CC(C)C)NC(=O)[C@H](CCCNC(=N)N)NC(=O)CCCCCNC(=S)Nc1ccc(-c2c3ccc(=O)cc-3oc3cc(O)ccc23)c(C(=O)O)c1)C(=O)N[C@@H](CCCNC(=N)N)C(N)=O [Pep-2, FITC-XRLLRRLLR] (HELM PEPTIDE1{[O=C(O)c1cc(NC(=S)[*:2])ccc1-c1c2ccc(=O)cc-2oc2cc(O)ccc12].[O=C(CCCCCN[*:1])[*:2]].R.L.L.R.R.L.L.R.[am]}$$$$V2.0) |  |  |  | cytotoxicity relative to Pep-1 (in words) (HeLa cells [4]; at 100 M (so in the source)): displaying cytotoxicity
